Experimental data published in patent publication US7960427B2, “5-hydroxyindole-3-carboxylate derivatives and uses thereof” (priority 2004, dated 2011).
≈ marks a conversion by molar mass, not a printed value. Counter-ions that a name gives are not always drawn.

What was measured:
[1] = system: 2.2.15 cells; experiment: Cytotoxicity (TC50) in 2.2.15 cells; format: cell-based
[2] = system: HBV DNA; experiment: In vitro anti-HBV activity: replication of HBV DNA in 2.2.15 cells (dot hybridization); format: cell-based, Hepatitis B virus (HBV); conditions: for IC50: Hepatitis B virus, read-out: DNA replication IC50; for DNA replication SI: selectivity index
Procedure, shortened: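 HBV-producing 2.2.15 cells exposed to 3-fold serial dilutions of compound (DMSO stocks diluted in medium); cells and supernatants harvested on day 8. Intracellular HBV DNA replication quantified by dot hybridization with α-32P-dCTP probe; HBsAg/HBeAg in supernatant by RIA.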

[3] = system: HBeAg; experiment: In vitro anti-HBV activity: HBeAg production in HBV-infected 2.2.15 cells (RIA); format: cell-based, Hepatitis B virus (HBV); conditions: for IC50: Hepatitis B virus, read-out: HBeAg IC50; for HBeAg SI: selectivity index
Experimental: (§1) All compounds were evaluated for their anti-HBV activities, namely the ability to inhibit the replication of HBV DNA and the production of HBsAg and HBeAg in HBV-infected 2.2.15 cells.
(§2) The samples were dissolved in DMSO for appropriate concentrations, and then each was diluted 3-fold with culture medium. The 2.2.15 cells were planted into 96-well culture plates. […] The culture supernatants and 2.2.15 cells were collected respectively on the 8th plant day. The secretion concentrations of HBsAg and HBeAg in the culture supernatants were measured by RIA on SPRIA Kit for Detection of HBsAg and HBeAg (Beijing North Institute of Biological Technology), and the replication of HBV DNA was measured by dot hybridization with a^32PdCTP (FuRui Biological Technology Ltd., China).

[4] = system: Madin-Darby canine kidney (MDCK) cells
[5] = system: influenza A virus, strain A/jifang/90-15; experiment: microbe, parasite or virus in culture; format: cell-based; conditions: for IC50: Influenza A virus, Influenza strain A/jifang/90-15, MDCK cells, CPE, Reed-Muench, read-out: IC50; for SI: Influenza strain A/jifang/90-15
[6] = system: HBsAg; experiment: In vitro anti-HBV activity: HBsAg production in HBV-infected 2.2.15 cells (RIA); format: cell-based, Hepatitis B virus (HBV); conditions: for IC50: Hepatitis B virus, read-out: HBsAg IC50; for HBsAg SI: selectivity index
Experimental: as §1, §2

| Compound | TC50 [1] [µg/mL] | IC50 [2] [µg/mL] | DNA replication SI [2] | IC50 [3] [µg/mL] | HBeAg SI [3] | TC50 [4] [µg/mL] | IC50 [5] [µg/mL] | SI [5] | IC50 [6] [µg/mL] | HBsAg SI [6] |
| --- | --- | --- | --- | --- | --- | --- | --- | --- | --- | --- |
| CCOC(=O)c1c(CS(=O)(=O)c2cccc(OC)c2)n(C)c2ccc(O)c(CN3CCCC3)c12 [Example 72, Ethyl 5-hydroxy-1-methyl-4-(1-pyrrolidinylmethyl)-2-[(3-methoxyphenyl)sulfonylmethyl]-1H-indole-3-carboxylate hydrochloride] | 106.83 | 15.4 | 6.9 | 15.4 | 6.9 |  |  |  |  |  |
| CCOC(=O)c1c(C[S+]([O-])Cc2ccccc2)n(C2CC2)c2cc(Br)c(O)c(Cn3ccnc3)c12 (stereo not drawn) [Example 126, Ethyl 6-bromo-1-cyclopropyl-5-hydroxy-4-[(1-imidazolyl)methyl]-2-(benzylsulfinylmethyl)-1H-indole-3-carboxylate] | 35.61 (≈ 64 µM) | 6.36 (≈ 11.4 µM) | 5.60 |  |  | 44.19 (≈ 79.4 µM) | 11.1 (≈ 19.9 µM) | 4.0 |  |  |
| CCOC(=O)c1c(C[S+]([O-])Cc2cscn2)n(C2CC2)c2cc(Br)c(O)c(Cn3ccnc3)c12 (stereo not drawn) [Example 128, Ethyl 6-bromo-1-cyclopropyl-5-hydroxy-4-[(1-imidazolyl)methyl]-2-[(4-thiazolylmethyl)sulfinylmethyl]-1H-indole-3-carboxylate dihydrochloride] | 53.42 |  |  | 8.06 | 6.63 |  |  |  | 7.23 | 7.39 |
| CCOC(=O)c1c(CSCc2ccccc2)n(C)c2cc(Br)c(O)c(Cn3ccnc3)c12 [Example 176, Ethyl 6-bromo-5-hydroxy-4-[(1-imidazolyl)methyl]-1-methyl-2-(benzylthiomethyl)-1H-indole-3-carboxylate] |  |  |  |  |  | 125 (≈ 243 µM) | 15.6 (≈ 30.4 µM) | 8.0 |  |  |
| CCOC(=O)c1c(CS(=O)(=O)Cc2ccccc2)n(C2CC2)c2cc(Br)c(O)c(Cn3ccnc3C)c12 [Example 178, Ethyl 6-bromo-1-cyclopropyl-5-hydroxy-4-[(2-methyl-1-imidazolyl)methyl]-2-(benzylsulfonylmethyl)-1H-indole-3-carboxylate] |  |  |  |  |  | 78.75 (≈ 134 µM) | 7.81 (≈ 13.3 µM) | 10.08 |  |  |
| CCOC(=O)c1c(CS(=O)(=O)C23CC4CC(CC(C4)C2)C3)n(C)c2cc(Br)c(O)c(Cn3ccnc3C)c12 [Example 179, Ethyl 6-bromo-5-hydroxy-1-methyl-4-[(2-methyl-1-imidazolyl)methyl]-2-[(1-adamantanyl)sulfonylmethyl]-1H-indole-3-carboxylate] | 10.69 (≈ 17.7 µM) |  |  | 1.91 (≈ 3.16 µM) | 5.60 |  |  |  | 1.88 (≈ 3.11 µM) | 5.69 |
| CCOC(=O)c1c(CSCc2ccccc2F)n(C2CC2)c2cc(Br)c(O)c(Cn3cncn3)c12 [Example 186, Ethyl 6-bromo-1-cyclopropyl-5-hydroxy-4-[(1H-1,2,4-triazol-1-yl)methyl]-2-[(2-fluorobenzyl)thiomethyl]-1H-indole-3-carboxylate] |  |  |  |  |  | 62.5 (≈ 112 µM) | 9.17 (≈ 16.4 µM) | 6.82 |  |  |
| CCOC(=O)c1c(CSCc2ccc(F)cc2)n(C)c2cc(Br)c(O)c(Cn3cncn3)c12 [Example 187, Ethyl 6-bromo-5-hydroxy-1-methyl-4-[(1H-1,2,4-triazol-1-yl)methyl]-2-[(4-fluorobenzyl)thiomethyl]-1H-indole-3-carboxylate] |  |  |  |  |  | 44.19 (≈ 82.8 µM) | 26.6 (≈ 49.9 µM) | 1.66 |  |  |
| CCOC(=O)c1c(CSCc2ccccc2)n(C2CC2)c2cc(Br)c(O)c(CNC(=N)N)c12 [Example 188, Ethyl 6-bromo-1-cyclopropyl-4-(guanidinylmethyl)-5-hydroxy-2-(benzylthiomethyl)-1H-indole-3-carboxylate] |  |  |  |  |  | 39.37 (≈ 74.1 µM) | 9.85 (≈ 18.5 µM) | 4.0 |  |  |
